# According to PubChem BioAssay (NCI):
#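 96-well plates; 48 h exposure; 5 concentrations. Endpoints by linear interpolation between flanking doses. Not reached: highest tested concentration assigned. The concentration for 50% growth inhibition is given as GI50. Definition used: TGI = concentration required for complete inhibition of growth.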
# How the values were obtained:
# Assay in all cases: NCI tumour cell line growth inhibition, 48 h
# [1] = system: K-562 leukemia
# [2] = system: 786-0 renal
# [3] = system: SF-268 CNS
# [4] = system: ACHN renal
# [5] = system: A498 renal
# [6] = system: SN12C renal
# [7] = system: NCI-H226 lung
# [8] = system: A549 NSCLC
# [9] = system: LOX IMVI melanoma
# [10] = system: HOP-62 NSCLC
# [11] = system: SNB-19 CNS
# [12] = system: HS 578T breast
# [13] = system: DU-145 prostate
# [14] = system: KM12 colon
# [15] = system: BT-549 breast
# [16] = system: RPMI-8226 leukemia
# [17] = system: SK-MEL-2 melanoma
# [18] = system: SK-MEL-5 melanoma
# [19] = system: UO-31 renal
# [20] = system: SW-620 colon
# [21] = system: SK-MEL-28 melanoma
# [22] = system: CAKI-1 renal
# [23] = system: SNB-75 CNS
# [24] = system: SF-295 CNS
# [25] = system: MDA-MB-231 breast
# [26] = system: HCT-116 colon
# [27] = system: OVCAR-3 ovarian
# [28] = system: M14 melanoma
# [29] = system: MOLT-4 leukemia
# [30] = system: U251 CNS
# [31] = system: UACC-257 melanoma
# [32] = system: COLO 205 colon
# [33] = system: NCI-H522 lung
# [34] = system: SK-OV-3 ovarian
# [35] = system: OVCAR-4 ovarian
# [36] = system: OVCAR-8 ovarian
# [37] = system: NCI-H460 lung
# [38] = system: NCI/ADR-RES ovarian
# [39] = system: RXF 393 renal
# [40] = system: OVCAR-5 ovarian
# [41] = system: SF-539 CNS
# [42] = system: HCT-15 colon
# [43] = system: HL-60(TB) leukemia
# [44] = system: PC-3 prostate
# [45] = system: UACC-62 melanoma
# [46] = system: MCF7 breast
# [47] = system: CCRF-CEM leukemia
# [48] = system: SR leukemia
# [49] = system: MDA-MB-435
# [50] = system: HT29 colon
# [51] = system: HCC-2998 colon
# [52] = system: IGROV1 ovarian
compound,measurement,setting,value
Brc1ccc(SCN(CSc2ccc(Br)cc2)Cc2ccccc2)cc1,GI50,[1],5.44 µM
same,TGI,[1],60.6 µM
same,GI50,[2],4.3 µM
same,TGI,[2],15.5 µM
same,GI50,[3],2.31 µM
same,TGI,[3],12.6 µM
same,GI50,[4],4.49 µM
same,TGI,[4],19 µM
same,GI50,[5],1.51 µM
same,TGI,[5],3.47 µM
same,GI50,[6],1.38 µM
same,TGI,[6],14.2 µM
same,GI50,[7],1.93 µM
same,TGI,[7],4.39 µM
same,GI50,[8],2.41 µM
same,TGI,[8],11 µM
same,GI50,[9],1.61 µM
same,TGI,[9],3.19 µM
same,GI50,[10],3.2 µM
same,TGI,[10],14.2 µM
same,GI50,[11],2.69 µM
same,TGI,[11],23.5 µM
same,GI50,[12],2.98 µM
same,TGI,[12],> 100 µM
same,GI50,[13],6.12 µM
same,TGI,[13],21 µM
same,GI50,[14],2.67 µM
same,TGI,[14],10.9 µM
same,GI50,[15],1.75 µM
same,TGI,[15],3.9 µM
same,GI50,[16],3.31 µM
same,TGI,[16],10.5 µM
same,GI50,[17],6.06 µM
same,TGI,[17],19.9 µM
same,GI50,[18],1.77 µM
same,TGI,[18],3.46 µM
same,GI50,[19],1.93 µM
same,TGI,[19],8.64 µM
same,GI50,[20],3.58 µM
same,TGI,[20],15.1 µM
same,GI50,[21],5.12 µM
same,TGI,[21],23.4 µM
same,GI50,[22],3.47 µM
same,TGI,[22],12.5 µM
same,GI50,[23],2.28 µM
same,TGI,[23],10.9 µM
same,GI50,[24],1.28 µM
same,TGI,[24],3.49 µM
same,GI50,[25],1.69 µM
same,TGI,[25],4.3 µM
same,GI50,[26],3.66 µM
same,TGI,[26],14.4 µM
same,GI50,[27],3.54 µM
same,TGI,[27],11.4 µM
same,GI50,[28],3.79 µM
same,TGI,[28],14.2 µM
same,GI50,[29],2.37 µM
same,TGI,[29],6.82 µM
same,GI50,[30],2.02 µM
same,TGI,[30],6.82 µM
same,GI50,[31],4.05 µM
same,TGI,[31],17.5 µM
same,GI50,[32],3.85 µM
same,TGI,[32],13.7 µM
same,GI50,[33],2.43 µM
same,TGI,[33],5.62 µM
same,GI50,[34],7.12 µM
same,TGI,[34],51 µM
same,GI50,[35],10.4 µM
same,TGI,[35],87.8 µM
same,GI50,[36],3.71 µM
same,TGI,[36],17.9 µM
same,GI50,[37],2.78 µM
same,TGI,[37],12 µM
same,GI50,[38],4 µM
same,TGI,[38],95.8 µM
same,GI50,[39],5.54 µM
same,TGI,[39],20.4 µM
same,GI50,[40],2.89 µM
same,TGI,[40],11.4 µM
same,GI50,[41],1.92 µM
same,TGI,[41],3.88 µM
same,GI50,[42],3.56 µM
same,TGI,[42],18.8 µM
same,GI50,[43],2.35 µM
same,TGI,[43],5.36 µM
same,GI50,[44],2.34 µM
same,TGI,[44],10.3 µM
same,GI50,[45],3.01 µM
same,TGI,[45],9.34 µM
same,GI50,[46],3.06 µM
same,TGI,[46],13.3 µM
same,GI50,[47],2.1 µM
same,TGI,[47],7.4 µM
same,GI50,[48],2.77 µM
same,TGI,[48],7.77 µM
same,GI50,[49],3.1 µM
same,TGI,[49],12.2 µM
same,GI50,[50],5.05 µM
same,TGI,[50],18 µM
same,GI50,[51],11.5 µM
same,TGI,[51],25.5 µM
same,GI50,[52],2.64 µM
same,TGI,[52],7.25 µM
